What was measured:
Cytochrome P450 1B1 = biological target: T1, Cytochrome P450 1B1 (Homo sapiens, UniProt Q16678); assay: Inhibition of recombinant human CYP1B1 using 7-ethyl-0-resorufin as substrate incubated for 30 mins in presence of NADPH by EROD assay
T1 sequence (Q16678 whole entry): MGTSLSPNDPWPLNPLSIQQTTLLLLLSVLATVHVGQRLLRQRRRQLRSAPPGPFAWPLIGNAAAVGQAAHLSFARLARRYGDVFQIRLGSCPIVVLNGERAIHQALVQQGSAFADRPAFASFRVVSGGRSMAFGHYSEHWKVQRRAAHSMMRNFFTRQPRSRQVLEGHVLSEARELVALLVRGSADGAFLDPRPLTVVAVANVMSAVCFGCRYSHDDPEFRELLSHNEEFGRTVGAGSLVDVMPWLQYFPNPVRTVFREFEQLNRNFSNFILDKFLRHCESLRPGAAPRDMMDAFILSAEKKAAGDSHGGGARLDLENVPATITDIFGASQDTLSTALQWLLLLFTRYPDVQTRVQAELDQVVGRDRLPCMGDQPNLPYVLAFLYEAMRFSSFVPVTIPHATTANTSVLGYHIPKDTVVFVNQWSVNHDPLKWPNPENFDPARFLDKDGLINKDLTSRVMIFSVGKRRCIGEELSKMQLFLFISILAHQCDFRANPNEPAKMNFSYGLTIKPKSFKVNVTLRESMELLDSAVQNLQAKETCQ

Cytochrome P450 1A1 = biological target: T2, Cytochrome P450 1A1 (Homo sapiens, UniProt P04798); assay: Inhibition of recombinant human CYP1A1 using 7-ethyl-0-resorufin as substrate incubated for 30 mins in presence of NADPH by EROD assay
T2 sequence (P04798 whole entry): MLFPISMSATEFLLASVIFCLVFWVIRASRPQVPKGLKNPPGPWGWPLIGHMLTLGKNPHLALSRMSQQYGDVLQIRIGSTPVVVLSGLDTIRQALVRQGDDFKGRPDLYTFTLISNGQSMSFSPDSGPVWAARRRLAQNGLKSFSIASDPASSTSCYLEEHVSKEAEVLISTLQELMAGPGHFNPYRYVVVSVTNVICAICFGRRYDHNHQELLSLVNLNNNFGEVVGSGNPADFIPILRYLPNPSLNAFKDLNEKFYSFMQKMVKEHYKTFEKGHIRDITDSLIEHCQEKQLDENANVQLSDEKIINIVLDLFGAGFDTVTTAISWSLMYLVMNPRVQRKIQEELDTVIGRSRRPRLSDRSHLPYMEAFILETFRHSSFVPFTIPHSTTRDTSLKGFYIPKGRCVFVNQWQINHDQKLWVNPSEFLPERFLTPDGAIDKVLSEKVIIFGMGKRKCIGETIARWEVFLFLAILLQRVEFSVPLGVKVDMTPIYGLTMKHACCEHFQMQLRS

CYP1A1 versus CYP1B1 = assay: Selectivity index, ratio of IC50 for inhibition of recombinant human CYP1A1 to IC50 for inhibition of recombinant human CYP1B1; details: recombinant human CYP1A1 and recombinant human CYP1B1
CYP1A2 versus CYP1B1 = assay: Selectivity index, ratio of IC50 for inhibition of recombinant human CYP1A2 to IC50 for inhibition of recombinant human CYP1B1; details: recombinant human CYP1A2 and recombinant human CYP1B1
Cytochrome P450 1A2 = biological target: T3, Cytochrome P450 1A2 (Homo sapiens, UniProt P05177); assay: Inhibition of recombinant human CYP1A2 using 7-ethyl-0-resorufin as substrate incubated for 30 mins in presence of NADPH by EROD assay
T3 sequence (P05177 whole entry): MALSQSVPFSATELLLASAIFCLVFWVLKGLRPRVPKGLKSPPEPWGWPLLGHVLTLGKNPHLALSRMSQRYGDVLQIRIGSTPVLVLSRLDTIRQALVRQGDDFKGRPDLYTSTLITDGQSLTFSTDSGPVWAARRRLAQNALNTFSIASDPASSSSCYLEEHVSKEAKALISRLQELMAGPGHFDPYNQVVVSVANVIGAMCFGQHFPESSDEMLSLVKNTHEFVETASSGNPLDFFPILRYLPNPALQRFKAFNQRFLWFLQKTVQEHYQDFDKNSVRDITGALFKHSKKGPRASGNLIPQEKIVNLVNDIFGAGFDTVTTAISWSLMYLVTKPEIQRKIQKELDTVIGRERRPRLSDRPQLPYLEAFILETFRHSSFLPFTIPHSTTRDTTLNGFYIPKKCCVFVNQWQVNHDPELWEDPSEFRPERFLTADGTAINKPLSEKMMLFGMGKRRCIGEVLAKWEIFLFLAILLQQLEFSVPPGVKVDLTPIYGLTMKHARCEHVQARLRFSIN

CYP1B1 = biological target: T4, CYP1B1 (Homo sapiens, UniProt Q16678); assay: Inhibition of recombinant human CYP1B1 assessed as inhibition ratio at 100 nM using 7-ethyl-0-resorufin as substrate incubated for 30 mins in presence of NADPH by EROD assay relative to control; details: recombinant human CYP1B1, probe 7-ethyl-0-resorufin
T4 sequence (Q16678 whole entry): T1 sequence (Q16678 whole entry)

Row | SMILES | IC50 (Cytochrome P450 1B1) [nM] | IC50 (Cytochrome P450 1A1) [nM] | inhibition at 0.5 h, 0.1 µM (CYP1B1) [%] | also measured
1 | COc1cc(Nc2nc(-c3nc(-c4ccc(F)cc4)cs3)cs2)cc(OC)c1 | 65.1 | > 10000 | – | –
2 | c1ccc(-c2csc(-c3csc(Nc4ccc(N5CCOCC5)cc4)n3)n2)cc1 | 11.6 | 334 | – | selectivity ratio (CYP1A1 versus CYP1B1): 28.9; selectivity ratio (CYP1A2 versus CYP1B1): 247; IC50 (Cytochrome P450 1A2): 2860 nM
3 | COc1cc(Nc2nc(-c3nc(-c4ccccc4)c(C)s3)cs2)cc(OC)c1 | 64.8 | 388 | – | selectivity ratio (CYP1A1 versus CYP1B1): 5.98; selectivity ratio (CYP1A2 versus CYP1B1): 14.1; IC50 (Cytochrome P450 1A2): 913 nM
4 | c1cc(Nc2nc(-c3nccs3)cs2)c2cccnc2c1 | – | – | 36 | –
5 | COc1cc(Nc2nc(-c3nc(-c4ccccc4)cs3)cs2)cc(OC)c1 | 3.92 | 222 | – | –
6 | Clc1cc(Cl)cc(Nc2nc(-c3nc(-c4ccccc4Cl)cs3)cs2)c1 | 6.64 | 1120 | – | –
7 | COc1ccc(-c2csc(-c3csc(Nc4cc(OC)cc(OC)c4)n3)n2)cc1 | 51.3 | 823 | – | –
8 | Fc1cccc(Nc2nc(-c3nc(-c4ccc(Cl)cc4F)cs3)cs2)c1 | > 1000 | > 10000 | – | IC50 (Cytochrome P450 1A2): > 10000 nM
9 | C#CCOc1ccccc1-c1csc(-c2csc(Nc3cc(OC)cc(OC)c3)n2)n1 | 77.6 | 271 | – | selectivity ratio (CYP1A1 versus CYP1B1): 3.49; selectivity ratio (CYP1A2 versus CYP1B1): 11.8; IC50 (Cytochrome P450 1A2): 916 nM
10 | CCc1sc(-c2csc(Nc3cccc(F)c3)n2)nc1-c1ccccc1 | 246 | 246 | – | –
11 | Cc1sc(-c2csc(Nc3cc(Cl)cc(Cl)c3)n2)nc1-c1ccccc1 | 23.3 | 316 | – | selectivity ratio (CYP1A1 versus CYP1B1): 13.5; selectivity ratio (CYP1A2 versus CYP1B1): 13.4; IC50 (Cytochrome P450 1A2): 313 nM
12 | Clc1cc(Cl)cc(Nc2nc(-c3nc(-c4cccnc4)cs3)cs2)c1 | 33.1 | 387 | – | selectivity ratio (CYP1A1 versus CYP1B1): 11.7; selectivity ratio (CYP1A2 versus CYP1B1): 6.85; IC50 (Cytochrome P450 1A2): 227 nM
13 | C#CCOc1ccccc1-c1csc(-c2csc(Nc3cccc(F)c3)n2)n1 | 22.2 | 125 | – | selectivity ratio (CYP1A1 versus CYP1B1): 5.64; selectivity ratio (CYP1A2 versus CYP1B1): 46.8; IC50 (Cytochrome P450 1A2): 1040 nM
14 | COc1cc(Nc2nc(-c3nc(-c4ccc(Cl)cc4F)cs3)cs2)cc(OC)c1 | 12.7 | > 10000 | – | IC50 (Cytochrome P450 1A2): > 10000 nM
15 | Fc1cccc(Nc2nc(-c3nc(-c4ccccc4)cs3)cs2)c1 | 6.49 | 1270 | – | –
16 | COc1cc(Nc2nc(-c3nc(-c4cccc(C#N)c4)cs3)cs2)cc(OC)c1 | 16.7 | 552 | – | –
17 | Fc1cccc(Nc2nc(-c3nc(-c4ccccc4)c(-c4ccccc4)s3)cs2)c1 | 518 | 6780 | – | –
18 | Fc1cc(Cl)ccc1-c1csc(-c2csc(Nc3ccc(N4CCOCC4)cc3)n2)n1 | 534 | > 10000 | – | selectivity ratio (CYP1A2 versus CYP1B1): 1.86; IC50 (Cytochrome P450 1A2): 995 nM
19 | Fc1cccc(Nc2nc(-c3nc(-c4cccnc4)cs3)cs2)c1 | 0.551 | 30.3 | – | –
20 | Clc1cc(Cl)cc(Nc2nc(-c3nc(-c4ccccc4)cs3)cs2)c1 | 20.1 | 896 | – | –
21 | COc1cc(Nc2nc(-c3nc(-c4cccc(F)c4)cs3)cs2)cc(OC)c1 | 11.1 | 820 | – | –
22 | COc1cc(Nc2nc(-c3nc(-c4cccc(Cl)c4)cs3)cs2)cc(OC)c1 | 15.9 | 6520 | – | –
23 | Fc1cccc(Nc2nc(-c3nc(-c4ccccn4)cs3)cs2)c1 | 11.8 | 314 | – | –

Further lines, with some results ahead:

Row | IC50 (Cytochrome P450 1B1) [nM] | IC50 (Cytochrome P450 1A1) [nM] | inhibition at 0.5 h, 0.1 µM (CYP1B1) [%] | SMILES | also measured
24 | – | – | 78.9 | COc1ccc(Nc2nc(-c3nccs3)cs2)cc1OC | –
25 | – | – | 81.5 | N#Cc1ccc(Nc2nc(-c3nccs3)cs2)cc1 | –
26 | – | – | 72.8 | Oc1cccc(Nc2nc(-c3nccs3)cs2)c1 | –
27 | – | – | 78.8 | Clc1ccc(Nc2nc(-c3nccs3)cs2)nc1 | –
28 | 7.6 | 262 | 90 | Clc1cccc(Nc2nc(-c3nccs3)cs2)c1 | –
29 | – | – | 54 | Nc1ccc(Nc2nc(-c3nccs3)cs2)cc1 | –
30 | – | – | 51 | CN1CCN(c2ccc(Nc3nc(-c4nccs4)cs3)cc2)CC1 | –
31 | – | – | 60 | COc1ccccc1Nc1nc(-c2nccs2)cs1 | –
32 | – | – | 78 | COc1ccc(Nc2nc(-c3nccs3)cs2)cc1 | –
33 | – | – | 92.4 | c1cc(Nc2nc(-c3nccs3)cs2)cc(-n2ccnc2)c1 | –
34 | 35.7 | 957 | 92 | Fc1ccc(Nc2nc(-c3nccs3)cs2)cc1 | –
35 | – | – | 94.1 | Fc1ccc(Nc2nc(-c3nccs3)cs2)cc1Cl | –
36 | – | – | 73.9 | Oc1ccc(Nc2nc(-c3nccs3)cs2)cc1 | –
37 | – | – | 80 | c1ccc2cc(Nc3nc(-c4nccs4)cs3)ccc2c1 | –
38 | – | – | 75 | Fc1ccc(Nc2nc(-c3nccs3)cs2)nc1 | –
39 | – | – | 43.7 | c1csc(-c2csc(Nc3ccc(N4CCNCC4)cc3)n2)n1 | –
40 | – | – | 56.4 | c1ccc(Nc2nc(-c3nccs3)cs2)cc1 | –
41 | – | – | 82 | c1csc(-c2csc(Nc3ccc(-n4cncn4)cc3)n2)n1 | –
42 | – | – | 41.3 | O=[N+]([O-])c1ccc(Nc2nc(-c3nccs3)cs2)cc1 | –
43 | – | – | 89.6 | Fc1ccccc1Nc1nc(-c2nccs2)cs1 | –
44 | – | – | 72.8 | Clc1ccccc1Nc1nc(-c2nccs2)cs1 | –
45 | – | – | 57.9 | Nc1cccc(Nc2nc(-c3nccs3)cs2)c1 | –
46 | – | – | 93.4 | c1cnc2ccc(Nc3nc(-c4nccs4)cs3)cc2c1 | –
47 | – | – | 57.6 | O=[N+]([O-])c1cccc(Nc2nc(-c3nccs3)cs2)c1 | –
48 | – | 414 | 94.2 | COc1cccc(Nc2nc(-c3nccs3)cs2)c1 | selectivity ratio (CYP1A1 versus CYP1B1): 5.39
49 | – | – | 93.7 | CC(=O)Nc1cccc(Nc2nc(-c3nccs3)cs2)c1 | –

Reference: ChEMBL document CHEMBL5236635, “Structure-Based Drug Design and Synthesis of Novel N-Aryl-2,4-bithiazole-2-amine CYP1B1-Selective Inhibitors in Overcoming Taxol Resistance in A549 Cells” (J Med Chem, 2022)
